Measured values from patent US11419806B2, “Prebiotic oral care methods using a saccharide” (Colgate-Palmolive Company, priority 2013, dated 2022).

Experiments:
Type in all cases: cell-based
S. salivarius = test: Twenty-four hour biofilm growth (crystal violet)
Method: (§1) The increase in biofilm formation of the tested bacteria in response to selected saccharides (D-turanose, D-lactitol, myo-inositol, and N-acetyl-D-mannosamine) was investigated by setting up biofilm growth assays in a nutritionally rich medium (brain heart infusion broth (BHI), Oxoid), over 24 hours. Late exponential growth phase liquid cultures were prepared by transferring the respective bacterium from blood agar plates to BHI and overnight incubation at 37° C. in an anaerobic atmosphere for A. viscosus, V. parvula, P. gingivalis, P. intermedia, T. forsythia, A. naeslundii, and C. sputigena, and in a 5% CO2 environment for S. salivarius, S. sanguinis, S. mitis, A. actinomycetemcomitans, S. mutans, and S. gordonii. Overnight cultures were transferred to BHI and adjusted to a concentration of 1×10^7 CFU/ml by measuring the optical density at 600 nm (OD600) (BioRad SmartSpec 3000). For each strain, 200 μl of the bacterial suspension was added to a 96-well plate containing 20 μl of the respective saccharides. Final concentrations of the saccharides were set to 5, 10, 20 and 25 μmol/ml. […] Additionally, for each bacterium tested, a background control, to correct for background staining, was added. This background control contained the bacterium tested and 0.03 weight % chlorhexidine, as an antiseptic. Plates were incubated as previously described. After 24 hrs the supernatant was removed from the wells of the plates. The wells were washed twice with 1×100 μL PBS (phosphate buffered saline), fixed for 20 minutes with 96% vol. ethanol (96% vol. solution in water) and the biofilm retained at the bottom of the wells was stained with 1 weight % crystal violet (1 weight % solution in water). The bound dye was dissolved with 5% vol. acetic acid (5% vol. solution in water). Quantification of the stained biofilm was performed by measuring the absorbance at 630 nm using a Multiskan Ascent microplate reader (Thermo Scientific).
(§2) The experiment was carried out on three different days (thus providing 3 biological replicas) and each day the experiment was carried out in quadruple (thus providing 4 technical replicas) for each combination of bacterium with saccharide and for each control. For each day and for each combination, the average (mean) of the values obtained (as detailed above) for the four technical replicas was calculated to provide a single value for each combination on each day. The values shown in Tables 7a, 7b, 8a, 8b, below, are the average (mean) of the three single values obtained for each combination of bacterium with saccharide.

A. actinomycetemcomitans = test: Twenty-four hour biofilm growth (crystal violet)
Method: as §1, §2

S. gordonii = test: Twenty-four hour biofilm growth (crystal violet)
Method: as §1, §2

T. forsythia = test: Twenty-four hour biofilm growth (crystal violet)
Method: as §1, §2

S. sanguinis = test: Twenty-four hour biofilm growth (crystal violet)
Method: as §1, §2

P. intermedia = test: Twenty-four hour biofilm growth (crystal violet)
Method: as §1, §2

P. gingivalis = test: Twenty-four hour biofilm growth (crystal violet)
Method: as §1, §2

A. viscosus = test: Twenty-four hour biofilm growth (crystal violet)
Method: as §1, §2

S. mitis = test: Twenty-four hour biofilm growth (crystal violet)
Method: as §1, §2

A. naeslundii = test: Twenty-four hour biofilm growth (crystal violet)
Method: as §1, §2

C. sputigena = test: Twenty-four hour biofilm growth (crystal violet)
Method: as §1, §2

S. mutans = test: Twenty-four hour biofilm growth (crystal violet); settings: S mutans
Method: as §1, §2

V. parvula = test: Twenty-four hour biofilm growth (crystal violet)
Method: as §1, §2

[1] = system: beneficial oral bacteria and pathogenic oral bacteria; test: Twenty-four hour biofilm growth, overall prebiotic assessment; settings: concentrations of 5, 10, 20 and 25 μmol/ml
Description: Substrates that were able to increase the biofilm mass of at least one of the above beneficial bacteria while not or only minimally increasing the biofilm mass of the pathogenic bacteria are considered to be prebiotic compounds.
as §1
as §2, with “saccharide. […]” for “saccharide.”

For `CC(=O)N[C@H](C=O)[C@@H](O)[C@H](O)[C@H](O)CO` [N-acetyl-D-mannosamine, 2-acetamido-2-deoxy-D-mannose], the “biofilm growth: OD 630 nm at 24 hrs divided by OD of control (control = 1)” value (S. salivarius; 5 μmol/ml) was 0.6489, the “biofilm growth: OD 630 nm at 24 hrs divided by OD of control (control = 1)” value (S. salivarius; 10 μmol/ml) was 0.6824 and the “biofilm growth: OD 630 nm at 24 hrs divided by OD of control (control = 1)” value (S. salivarius; 20 μmol/ml) was 0.3314. For the same molecule, the “biofilm growth: OD 630 nm at 24 hrs divided by OD of control (control = 1)” value (S. salivarius; 25 μmol/ml) was 0.3520, the “biofilm growth: OD 630 nm at 24 hrs divided by OD of control (control = 1)” value (A. actinomycetemcomitans; 5 μmol/ml) was 0.9519 and the “biofilm growth: OD 630 nm at 24 hrs divided by OD of control (control = 1)” value (A. actinomycetemcomitans; 10 μmol/ml) was 1.0569. For the same molecule, the “biofilm growth: OD 630 nm at 24 hrs divided by OD of control (control = 1)” value (A. actinomycetemcomitans; 20 μmol/ml) was 0.6532, the “biofilm growth: OD 630 nm at 24 hrs divided by OD of control (control = 1)” value (A. actinomycetemcomitans; 25 μmol/ml) was 0.7158 and the “biofilm growth: OD 630 nm at 24 hrs divided by OD of control (control = 1)” value (S. gordonii; 5 μmol/ml) was 0.7178. The “biofilm growth: OD 630 nm at 24 hrs divided by OD of control (control = 1)” value (S. gordonii; 10 μmol/ml) was 1.0041, the “biofilm growth: OD 630 nm at 24 hrs divided by OD of control (control = 1)” value (S. gordonii; 20 μmol/ml) was 0.5487 and the “biofilm growth: OD 630 nm at 24 hrs divided by OD of control (control = 1)” value (S. gordonii; 25 μmol/ml) was 0.6746. The “biofilm growth: OD 630 nm at 24 hrs divided by OD of control (control = 1)” value (T. forsythia; 5 μmol/ml) was 0.6028, the “biofilm growth: OD 630 nm at 24 hrs divided by OD of control (control = 1)” value (T. forsythia; 10 μmol/ml) was 0.9745 and the “biofilm growth: OD 630 nm at 24 hrs divided by OD of control (control = 1)” value (T. forsythia; 20 μmol/ml) was 0.4562. For the same molecule, the “biofilm growth: OD 630 nm at 24 hrs divided by OD of control (control = 1)” value (T. forsythia; 25 μmol/ml) was 0.5433, the “biofilm growth: OD 630 nm at 24 hrs divided by OD of control (control = 1)” value (S. sanguinis; 5 μmol/ml) was 1.5651 and the “biofilm growth: OD 630 nm at 24 hrs divided by OD of control (control = 1)” value (S. sanguinis; 10 μmol/ml) was 2.4890. The “biofilm growth: OD 630 nm at 24 hrs divided by OD of control (control = 1)” value (S. sanguinis; 20 μmol/ml) was 0.5600, the “biofilm growth: OD 630 nm at 24 hrs divided by OD of control (control = 1)” value (S. sanguinis; 25 μmol/ml) was 1.0289 and the “biofilm growth: OD 630 nm at 24 hrs divided by OD of control (control = 1)” value (P. intermedia; 5 μmol/ml) was 1.1437. The “biofilm growth: OD 630 nm at 24 hrs divided by OD of control (control = 1)” value (P. intermedia; 10 μmol/ml) was 1.5179, the “biofilm growth: OD 630 nm at 24 hrs divided by OD of control (control = 1)” value (P. intermedia; 20 μmol/ml) was 1.0689 and the “biofilm growth: OD 630 nm at 24 hrs divided by OD of control (control = 1)” value (P. intermedia; 25 μmol/ml) was 1.2252. For the same molecule, the “biofilm growth: OD 630 nm at 24 hrs divided by OD of control (control = 1)” value (P. gingivalis; 5 μmol/ml) was 0.6683, the “biofilm growth: OD 630 nm at 24 hrs divided by OD of control (control = 1)” value (P. gingivalis; 10 μmol/ml) was 0.8031 and the “biofilm growth: OD 630 nm at 24 hrs divided by OD of control (control = 1)” value (P. gingivalis; 20 μmol/ml) was 0.7270. For the same molecule, the “biofilm growth: OD 630 nm at 24 hrs divided by OD of control (control = 1)” value (P. gingivalis; 25 μmol/ml) was 0.8345, the “biofilm growth: OD 630 nm at 24 hrs divided by OD of control (control = 1)” value (A. viscosus; 5 μmol/ml) was 0.8126 and the “biofilm growth: OD 630 nm at 24 hrs divided by OD of control (control = 1)” value (A. viscosus; 10 μmol/ml) was 0.9165. The “biofilm growth: OD 630 nm at 24 hrs divided by OD of control (control = 1)” value (A. viscosus; 20 μmol/ml) was 0.5093, the “biofilm growth: OD 630 nm at 24 hrs divided by OD of control (control = 1)” value (A. viscosus; 25 μmol/ml) was 0.6492 and the “biofilm growth: OD 630 nm at 24 hrs divided by OD of control (control = 1)” value (S. mitis; 5 μmol/ml) was 2.4328. For the same molecule, the “biofilm growth: OD 630 nm at 24 hrs divided by OD of control (control = 1)” value (S. mitis; 10 μmol/ml) was 4.2456, the “biofilm growth: OD 630 nm at 24 hrs divided by OD of control (control = 1)” value (S. mitis; 20 μmol/ml) was 2.1524 and the “biofilm growth: OD 630 nm at 24 hrs divided by OD of control (control = 1)” value (S. mitis; 25 μmol/ml) was 3.0078. For the same molecule, the “biofilm growth: OD 630 nm at 24 hrs divided by OD of control (control = 1)” value (A. naeslundii; 5 μmol/ml) was 1.3056, the “biofilm growth: OD 630 nm at 24 hrs divided by OD of control (control = 1)” value (A. naeslundii; 10 μmol/ml) was 1.4302 and the “biofilm growth: OD 630 nm at 24 hrs divided by OD of control (control = 1)” value (A. naeslundii; 20 μmol/ml) was 1.1823. For the same molecule, the “biofilm growth: OD 630 nm at 24 hrs divided by OD of control (control = 1)” value (A. naeslundii; 25 μmol/ml) was 1.2220, the “biofilm growth: OD 630 nm at 24 hrs divided by OD of control (control = 1)” value (C. sputigena; 5 μmol/ml) was 0.9108 and the “biofilm growth: OD 630 nm at 24 hrs divided by OD of control (control = 1)” value (C. sputigena; 10 μmol/ml) was 0.9323. The “biofilm growth: OD 630 nm at 24 hrs divided by OD of control (control = 1)” value (C. sputigena; 20 μmol/ml) was 0.8871, the “biofilm growth: OD 630 nm at 24 hrs divided by OD of control (control = 1)” value (C. sputigena; 25 μmol/ml) was 0.8822 and the “biofilm growth: OD 630 nm at 24 hrs divided by OD of control (control = 1)” value (S. mutans; 5 μmol/ml) was 0.8572. For the same molecule, the “biofilm growth: OD 630 nm at 24 hrs divided by OD of control (control = 1)” value (S. mutans; 10 μmol/ml) was 0.8329, the “biofilm growth: OD 630 nm at 24 hrs divided by OD of control (control = 1)” value (S. mutans; 20 μmol/ml) was 0.7015 and the “biofilm growth: OD 630 nm at 24 hrs divided by OD of control (control = 1)” value (S. mutans; 25 μmol/ml) was 0.6922. The “biofilm growth: OD 630 nm at 24 hrs divided by OD of control (control = 1)” value (V. parvula; 5 μmol/ml) was 0.3811, the “biofilm growth: OD 630 nm at 24 hrs divided by OD of control (control = 1)” value (V. parvula; 10 μmol/ml) was 1.0958 and the “biofilm growth: OD 630 nm at 24 hrs divided by OD of control (control = 1)” value (V. parvula; 20 μmol/ml) was 0.1297. The “biofilm growth: OD 630 nm at 24 hrs divided by OD of control (control = 1)” value (V. parvula; 25 μmol/ml) was 0.3718 and the “prebiotic effects (biofilm growth, threshold value 1.6)” value [1] was “exhibited prebiotic effects”.
